Reference: patent publication US8754216B2, “NK1 antagonists” (OPKO Health, Inc., priority 2004, dated 2014)

target: NK1 receptor (Homo sapiens, UniProt P25103); experiment: NK1 receptor binding: inhibition of Substance P binding, Ki by Chang-Prusoff equation; details: affinity for the NK1 receptor
Source text: The in vitro and in vivo NK1, NK2 and NK3 activities of the compounds of Formula I can be determined by various procedures known in the art, such as a test for their ability to inhibit the activity of the NK1 agonist Substance P. The percent inhibition of neurokinin agonist activity is the difference between the percent of maximum specific binding (“MSB”) and 100%. The percent of MSB is defined by the following equation, wherein “dpm” represents “disintegrations per minute”:
[formula] The concentration at which the compound produces 50% inhibition of binding is then used to determine an inhibition constant (“Ki”) using the Chang-Prusoff equation.
The activities (potencies) for the compounds of the invention are determined by measuring their Ki values. […] Even more preferred are compounds having average Ki values of from 0.1 nM to about 5 nM for the NK1 receptor. Especially preferred compounds have […], average Ki values of from 0.1 nM to about 1 nM. Even more especially preferred compounds have NK1 average Ki values of from 0.1 nM to about 0.3 nM.

Chain of NK1 receptor (P25103 whole entry, species assumed): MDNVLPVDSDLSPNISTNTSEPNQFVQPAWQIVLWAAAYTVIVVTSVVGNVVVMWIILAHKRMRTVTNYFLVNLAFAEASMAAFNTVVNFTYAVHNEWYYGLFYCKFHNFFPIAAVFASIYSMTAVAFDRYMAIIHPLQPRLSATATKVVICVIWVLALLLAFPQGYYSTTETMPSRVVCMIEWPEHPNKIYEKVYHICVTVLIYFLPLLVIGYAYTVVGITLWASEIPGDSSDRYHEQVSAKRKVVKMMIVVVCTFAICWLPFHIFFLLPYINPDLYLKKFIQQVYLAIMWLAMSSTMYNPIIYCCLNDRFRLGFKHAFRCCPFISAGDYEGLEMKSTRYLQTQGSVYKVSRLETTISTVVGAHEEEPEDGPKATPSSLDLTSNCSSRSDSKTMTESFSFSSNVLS

| Ki | Compound |
| --- | --- |
| 0.05 nM | C[C@@H](OC[C@@]1(c2ccccc2)CC[C@@](CO)(n2cnnc2)CN1)c1cc(C(F)(F)F)cc(C(F)(F)F)c1 [Compound 12] |
| 0.1 nM | COC[C@@]1(n2cnnc2)CC[C@@](CO[C@H](C)c2cc(C(F)(F)F)cc(C(F)(F)F)c2)(c2ccccc2)NC1 [Compound 14] |
| 0.11 nM | COC[C@]1(N2CC(=O)NC2=O)CC[C@@](CO[C@H](C)c2cc(C(F)(F)F)cc(C(F)(F)F)c2)(c2ccccc2)NC1 [Compound 20] |
| 0.12 nM | C[C@@H](OC[C@@]1(c2ccccc2)CC[C@](C#N)(N2CCOC2=O)CN1)c1cc(C(F)(F)F)cc(C(F)(F)F)c1 [Compound 2] |
| 0.1 nM | C[C@@H](OC[C@@]1(c2ccccc2)CC[C@@](C(N)=O)(n2cnnc2)CN1)c1cc(C(F)(F)F)cc(C(F)(F)F)c1 [Compound 10] |
| 0.12 nM | C[C@@H](OC[C@@]1(c2ccccc2)CC[C@](CO)(n2cn[nH]c2=O)CN1)c1cc(C(F)(F)F)cc(C(F)(F)F)c1 [Compound 23] |
| 0.54 nM | CC(=O)C[C@]1(n2cn[nH]c2=O)CC[C@@](CO[C@H](C)c2cc(C(F)(F)F)cc(C(F)(F)F)c2)(c2ccccc2)NC1 [Compound 30] |
| 0.12 nM | C/C(=N\O)[C@]1(n2cn[nH]c2=O)CC[C@@](CO[C@H](C)c2cc(C(F)(F)F)cc(C(F)(F)F)c2)(c2ccccc2)NC1 [Compound 54] |
| 0.28 nM | C[C@@H](OC[C@@]1(c2ccccc2)CC[C@](C#N)(n2cn[nH]c2=O)CN1)c1cc(C(F)(F)F)cc(C(F)(F)F)c1 [Compound 42] |
| 0.1 nM | CCC(=O)[C@]1(n2cn[nH]c2=O)CC[C@@](CO[C@H](C)c2cc(C(F)(F)F)cc(C(F)(F)F)c2)(c2ccccc2)NC1 [Compound 19] |
| 0.13 nM | CCNC(=O)C[C@]1(n2cn[nH]c2=O)CC[C@@](CO[C@H](C)c2cc(C(F)(F)F)cc(C(F)(F)F)c2)(c2ccccc2)NC1 [Compound 16] |
| 0.18 nM | C[C@@H](OC[C@@]1(c2ccccc2)CC[C@](C#N)(N2CCC2=O)CN1)c1cc(C(F)(F)F)cc(C(F)(F)F)c1 [Compound 9] |
| 0.11 nM | C[C@@H](OC[C@@]1(c2ccccc2)CC[C@](CC(N)=O)(n2cn[nH]c2=O)CN1)c1cc(C(F)(F)F)cc(C(F)(F)F)c1 [Compound 29] |
